Source: patent US6743609B1, “Linoleate isomerase” (Arkion Life Sciences LLC, priority 1997, dated 2004)
pKi: −log10 of the molar value.

Legend:
[1] = tested on: C. sporogenes ATCC 25762 linoleate isomerase; assay: Effect of additives, buffer components and detergents on C. sporogenes isomerase activity; type: biochemical, Clostridium sporogenes
Experimental: It has been reported that solubilization in the presence of lysophosphatidylcholine (LPC) allows higher detergent concentrations to be used, thus allowing more complete membrane protein solubilization. CaCl2 can activate enzymes, such as some nucleases.
A third nonionic detergent, octyl glucoside (OG) was tested for its ability to solubilize the C. sporogenes linoleate isomerase.

[2] = tested on: P. acnes ATCC 6919 linoleate isomerase; assay: Effect of cofactors, metals, chelators and sulfhydryl reagents on isomerase activity of crude soluble enzyme preparation; type: biochemical, Propionibacterium acnes; details: for effect of possible cofactor on isomerase activity: 60 minute assays
Experimental: A number of possible cofactors were tested for their effect on isomerase activity, including NAD, NADH, NADP, NADPH, FAD, FMN, ADP, ATP and glutathione.
(§1) Generally, the isomerase was assayed using an endpoint assay after 30 to 60 minutes incubation at room temperature. FIG. 18 (time course assay at different linoleic acid levels) and FIG. 19 (end point assay at different linoleic acid levels) show the effect of increasing substrate concentration on formation of […].

9,11 linoleate isomerase = assay: Test of possible inducers of the 9,11 linoleate isomerase in the growth medium; type: cell-based, Lactobacillus reuteri; details: 100 mg/l in the growth medium
Experimental: Several substances were tested as possible inducers of the 9,11 linoleate isomerase. The materials tested included: lauric acid, myristic acid, palmitic acid, palmitoleic acid, oleic acid, linoleic acid, linolenic acid, oleic acid stearyl ester, linoleyl alcohol, linoleic acid methyl ester, linoleic acid ethyl ester, stearic acid and linoleic acid methyl ester. They were added to the growth medium at a 100 mg/l level.

linoleate isomerase = type: biochemical; details: pH optimum of about 7.5
[3] = tested on: Lactobacillus reuteri PYR8 9,11 linoleate isomerase (whole cells); assay: Whole-cell biotransformation of linoleic acid, effect of product and substrate on isomerase; type: cell-based; details: 700 ppm CLA from recycled reaction broth, 1000 ppm linoleic acid
Source text: The following example describes the determination of conditions to improve enzyme stability and performance and on testing the limitations of the biotransformation process. Whole cells of L. reuteri PYR8 were used in all biotransformation experiments described below.
The effect of substrate and product on the enzyme performance was also investigated, as well as the possibility of recycling the cells. The effect of CLA on the reaction was studied by adding different concentrations of either a mixture of isomers (Sigma material, approximately 41% 9,11 isomer and 48% 10,12 CLA), or just 9,11 CLA (Matreya material, approximately 77% 9,11 CLA). Concentrations from 500 to 3000 ppm were tested. Some experiments were also performed recycling the broth from a previous biotransformation reaction with L. reuteri PYR8, resulting in an initial CLA concentration around 700 ppm. In every case, 1000 ppm linoleic acid were added. […] In the same period, almost complete conversion of the linoleic acid was obtained in the control without exogenous CLA. However, the effect was not detected when the CLA present came from recycled reaction broth. […] The results may indicate that some of the impurities present in the chemically produced CLA may be stronger inhibitors of the 9,11 isomerase than the product itself. […]

L. reuteri PYR8 = assay: Whole cell biotransformation of linoleic acid to CLA; type: cell-based, Lactobacillus reuteri; details: for (cis,trans)-9,11-CLA formation on addition of nonionic detergent: detergents added to 0.1-0.5% final concentration
Experimental: Cultures were grown and harvested as described above. Washed cells were resuspended in either fresh growth medium or 0.1 M Tris pH 8.0 buffer containing linoleic acid at various concentrations.
Samples were taken at appropriate intervals and analyzed for CLA as described in Example 2. In some experiments, various detergents were added to 0.1-0.5% final concentration. […] About 5 mL solvent was added to about 20 mL aqueous cell suspension in a 125 mL baffled shake flask incubated at room temperature.
Linoleic acid was added as 99% LA, dissolved in propyleneglycol (100 mg/ml solution) or emulsified with 0.5, 5 or 30% lecithin. The emulsion was prepared by blending the linoleic acid and the lecithin with the reaction medium before the addition of the cells. Linoleic acid was added at 1000 and 2000 ppm.
In the second experiment, cell recycle was studied with cells that have performed the biotransformation at different levels of linoleic acid. Cells were harvested, resuspended in breakage buffer at a 10-fold concentration, and linoleic acid was added at 1000, 1500, 2000, 2500 and 3000 ppm level. Given the higher linoleic acid concentration, the reaction was allowed to proceed for six hours. […] 1000 ppm linoleic acid were added and the reaction was followed for four hours.

[4] = molecular target: T1, Propionibacterium acnes ATCC 6919 linoleate isomerase (10,12-linoleate isomerase) (Cutibacterium acnes, UniProt Q6A8X5); assay: Linoleate isomerase activity in crude soluble extract, effect of cofactors, chelators, sulfhydryl reagents and substrate level; type: biochemical; details: increasing linoleic acid levels, FIGS. 18 and 19
T1 construct: gene not cloned in this document
Experimental: (§2) About 50 to about 250 μL of enzyme sample was added to 1.5 mL of enzyme assay buffer for reaction. About 1 to about 2 mL of aqueous phase was separated from the enzyme reaction and was extracted with about 3 mL of hexane. […] Depending on the level of activity, assay mixtures of chromatography fractions were incubated at room temperature from about 1 to about 24 hours before extraction with hexane.
Enzyme extracts were prepared by French Press and the extract fractionated as outlined in FIG. 15. Taking the total isomerase activity in fraction A as 100%, over 93% of the activity was detected in the soluble protein fraction (B) Less than 1% of the isomerase activity was found in the washed pellet, or membrane fraction (C). Approximately 2% of the activity was located in the buffer fraction (D), after the pellet washing and centrifugation steps. Thus, the P. acnes isomerase clearly is not a membrane protein, unlike the isomerase activities in L. reuteri PYR8 and other strains examined to date.
Calcium and magnesium also had no effect.
as §1

[5] = tested on: Clostridium sporogenes ATCC 25762 linoleate isomerase; assay: Linoleate isomerase activity versus linoleic acid concentration; type: biochemical; details: tested from 0 to 100 ppm, FIG. 26
Experimental: as §2
Temperature optimization with crude extracts was carried out at 4° C., room temperature (˜25° C.) and 37° C. The best temperature for the isomerase activity was room temperature (FIG. 25). The isomerase activity decreased to 73% of optimum at 4° C. and 63% of optimum at 37° C.
The concentration of linoleic acid was tested from 0 to 100 ppm (FIG. 26). The optimum concentration for linoleic add was determined to be 40 ppm.

[6] = tested on: isolated linoleate isomerase (source organism not stated with the values); assay: Michaelis-Menten kinetics of isolated linoleate isomerase (linoleic acid substrate, oleic acid inhibition)

T1 sequence (Q6A8X5 entry or part of it): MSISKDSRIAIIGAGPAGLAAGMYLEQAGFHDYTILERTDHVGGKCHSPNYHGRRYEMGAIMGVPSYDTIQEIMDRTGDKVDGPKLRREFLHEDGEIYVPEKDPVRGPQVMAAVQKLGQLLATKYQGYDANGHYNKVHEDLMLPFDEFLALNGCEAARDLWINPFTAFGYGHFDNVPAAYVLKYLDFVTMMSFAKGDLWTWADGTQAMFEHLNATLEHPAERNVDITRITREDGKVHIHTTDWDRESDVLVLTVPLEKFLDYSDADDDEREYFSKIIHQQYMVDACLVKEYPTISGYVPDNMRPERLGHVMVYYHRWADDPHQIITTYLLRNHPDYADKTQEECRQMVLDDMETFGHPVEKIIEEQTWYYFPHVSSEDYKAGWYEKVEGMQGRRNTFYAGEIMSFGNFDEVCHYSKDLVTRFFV

Molecule: [Ca+2].[Cl-].[Cl-] [CaCl2]
- effect on enzyme activity ([1]; Tris and phosphate buffer systems): decreased the enzyme activity
- effect on enzyme activity ([1]; temperatures higher than 37° C.): no effect on the activity

Molecule: O=C(O)c1cc[c]([Hg][Cl])cc1 [p-chloromercuribenzoate]
- inhibition of isomerase activity ([2]; 5 μM): not inhibited

Molecule: N[C@@H](CCC(=O)N[C@@H](CS)C(=O)NCC(=O)O)C(=O)O [glutathione]
- effect of possible cofactor on isomerase activity [2]: No significant effect

Molecule: CCCCCC/C=C\CCCCCCCC(=O)O [palmitoleic acid]
- effect as inducer on expression and/or activity of the isomerase (9,11 linoleate isomerase): No positive effect

Molecule: CCCCC/C=C\C/C=C\CCCCCCCC(=O)OCC [linoleic acid ethyl ester]
- effect as inducer on expression and/or activity of the isomerase (9,11 linoleate isomerase): No positive effect

Molecule: OCC(O)CO [glycerol]
- increase in activity on increasing the concentration ([1]; extraction buffer): 30%

Molecule: NC(=O)c1ccc[n+]([C@@H]2O[C@H](COP(=O)([O-])OP(=O)(O)OC[C@H]3O[C@@H](n4cnc5c(N)ncnc54)[C@H](O)[C@@H]3O)[C@@H](O)[C@H]2O)c1 [NAD]
- effect of possible cofactor on isomerase activity [2]: No significant effect

Molecule: Cc1cc2nc3c(=O)[nH]c(=O)nc-3n(C[C@H](O)[C@H](O)[C@H](O)COP(=O)(O)O)c2cc1C [FMN]
- effect of possible cofactor on isomerase activity [2]: No significant effect

Molecule: NC(=O)c1ccc[n+]([C@@H]2O[C@H](COP(=O)([O-])OP(=O)(O)OC[C@H]3O[C@@H](n4cnc5c(N)ncnc54)[C@H](OP(=O)(O)O)[C@@H]3O)[C@@H](O)[C@H]2O)c1 [NADP]
- effect of possible cofactor on isomerase activity [2]: No significant effect

Molecule: [Ca] [Calcium]
- effect of metal on isomerase activity [2]: no effect

Molecule: CCCCCCCC/C=C\CCCCCCCC(=O)O [oleic acid]
- pKi (linoleate isomerase; read-out: Ki for oleic acid): ~4.10
- effect as inducer on expression and/or activity of the isomerase (9,11 linoleate isomerase): No positive effect

Molecule: NC(=O)C1=CN([C@@H]2O[C@H](COP(=O)(O)OP(=O)(O)OC[C@H]3O[C@@H](n4cnc5c(N)ncnc54)[C@H](O)[C@@H]3O)[C@@H](O)[C@H]2O)C=CC1 [NADH]
- effect of possible cofactor on isomerase activity [2]: No significant effect

Molecule: CCCCC/C=C\C/C=C\CCCCCCCCO [linoleyl alcohol]
- effect as inducer on expression and/or activity of the isomerase (9,11 linoleate isomerase): No positive effect

Molecule: CCCCCCCCCCCCCCCC(=O)O [palmitic acid]
- effect as inducer on expression and/or activity of the isomerase (9,11 linoleate isomerase): No positive effect

Molecule: CCCCCCCCCCCCCC(=O)O [myristic acid]
- effect as inducer on expression and/or activity of the isomerase (9,11 linoleate isomerase): No positive effect

Molecule: Cc1cc2nc3c(=O)[nH]c(=O)nc-3n(C[C@H](O)[C@H](O)[C@H](O)COP(=O)(O)OP(=O)(O)OC[C@H]3O[C@@H](n4cnc5c(N)ncnc54)[C@H](O)[C@@H]3O)c2cc1C [FAD]
- effect of possible cofactor on isomerase activity [2]: No significant effect

Molecule: NC(=O)C1=CN([C@@H]2O[C@H](COP(=O)(O)OP(=O)(O)OC[C@H]3O[C@@H](n4cnc5c(N)ncnc54)[C@H](OP(=O)(O)O)[C@@H]3O)[C@@H](O)[C@H]2O)C=CC1 [NADPH]
- effect of possible cofactor on isomerase activity [2]: No significant effect

Molecule: CCN1C(=O)C=CC1=O [N-ethylmaleimide]
- inhibition of isomerase activity ([2]; 100 μM): not inhibited

Molecule: CCCCC/C=C\C/C=C\CCCCCCCC(=O)OC [linoleic acid methyl ester]
- effect as inducer on expression and/or activity of the isomerase (9,11 linoleate isomerase): No positive effect

Molecule: [Mg] [magnesium]
- effect of metal on isomerase activity [2]: no effect

Molecule: c1cnc2c(c1)ccc1cccnc12 [1,10-phenanthroline]
- inhibition of isomerase activity ([2]; 1 mM): not inhibited

Molecule: CCCCCC/C=C/C=C\CCCCCCCC(=O)O [CLA]
- effect of CLA from recycled reaction broth on conversion rate [3]: no difference in conversion rate

Molecule: CCCCCCCCO[C@@H]1O[C@H](CO)[C@@H](O)[C@H](O)[C@H]1O [OG, octyl glucoside]
- isomerase specific activity higher than that of OTGP solubilized isomerase ([1]; 1.5% (2×critical micelle concentration)): about 20%

Molecule: CCCCCCCCCCCCCCCCCC(=O)O [stearic acid]
- effect as inducer on expression and/or activity of the isomerase (9,11 linoleate isomerase): No positive effect

Molecule: Triton X-100
- (cis,trans)-9,11-CLA formation on addition of nonionic detergent (L. reuteri PYR8): does not significantly increase

Molecule: CCCCC/C=C\C/C=C\CCCCCCCC(=O)O [linoleic acid, (cis,cis)-9,12-linoleic acid]
- Km (linoleate isomerase; read-out: Km for linoleic acid): ~8.1 µM
- substrate inhibition (L. reuteri PYR8; up to 3000 ppm linoleic acid, cells 10-fold concentrated in breakage buffer): no substrate inhibition was detected
- effect as inducer on expression and/or activity of the isomerase (9,11 linoleate isomerase): No positive effect
- substrate inhibition by linoleic acid [4]: not subject to the same type of substrate inhibition
- optimum concentration for linoleic acid [5]: 40 ppm
- linoleic acid concentration at which initial velocity decreases [6]: about 60 μM

Molecule: CCCCCCCC/C=C\CCCCCCCC(=O)OCCCCCCCCCCCCCCCCCC [oleic acid stearyl ester]
- effect as inducer on expression and/or activity of the isomerase (9,11 linoleate isomerase): No positive effect

Molecule: Nc1ncnc2c1ncn2[C@@H]1O[C@H](COP(=O)(O)OP(=O)(O)O)[C@@H](O)[C@H]1O [ADP]
- effect of possible cofactor on isomerase activity [2]: No significant effect

Molecule: CCCCCCCCCCCC(=O)O [lauric acid]
- effect as inducer on expression and/or activity of the isomerase (9,11 linoleate isomerase): No positive effect

Molecule: CCCCCCCC/C=C\CCCCCCCC(=O)OCCOCC(OCCO)C1OCC(OCCO)C1OCCO (stereo not shown) [Tween-80]
- (cis,trans)-9,11-CLA formation on addition of nonionic detergent (L. reuteri PYR8): does not significantly increase
